Consider one compound from PMC4147587, “Synthesis and Analgesic Effects of μ-TRTX-Hhn1b on Models of Inflammatory and Neuropathic Pain” (Toxins, 2014).

“Also recorded” adds a separate entry of the source. Read-outs that look alike come from different tables or passages of the source.

For data set [1], the system named is motor coordination of rats (latency to fall off the rotarod). The data set is classed as in vivo, rat (Sprague-Dawley). The conditions noted are these: vs baseline, n = 6. Here is the method:
Motor activity was assessed using a rotarod apparatus for rats (Coulbourn Instruments, Lehigh Valley, PA, USA). The rotarod might be set at any speed from 0 to 50 rpm. For motor coordination assessment, rats were trained for 2 days by walking them each day on an accelerating rotarod from 4 to 40 rpm for 10 min. […] Motor performance was considered as the latency to fall off the rotarod apparatus determined from the mean time in three trials for each rat at each time.

Data set [2] deals with mice and rats. In words: observation of death and abnormal behaviors in the pain tests. The data set is classed as in vivo.

Take `CC[C@H](C)[C@H](NC(=O)[C@H](CCC(=O)O)NC(=O)[C@H](Cc1ccc(O)cc1)NC(=O)[C@H](CCCCN)NC(=O)[C@@H]1CSSC[C@@H]2NC(=O)[C@H](CCC(N)=O)NC(=O)[C@H](CC(=O)O)NC(=O)[C@H](CC(N)=O)NC(=O)[C@H](CO)NC(=O)[C@@H]3CCCN3C(=O)[C@H](CC(N)=O)NC(=O)[C@@H]3CSSC[C@H](NC(=O)[C@H](C(C)C)NC(=O)[C@H](CC(C)C)NC(=O)[C@H](CC(N)=O)NC(=O)[C@H](CO)NC(=O)[C@H](CO)NC(=O)[C@H](CCCCN)NC(=O)[C@H](CSSC[C@H](NC(=O)[C@@H](N)CCC(=O)O)C(=O)N[C@@H](CC(C)C)C(=O)NCC(=O)N[C@@H](Cc4ccccc4)C(=O)NCC(=O)N[C@@H](CCCCN)C(=O)NCC(=O)N3)NC2=O)C(=O)N[C@@H](CO)C(=O)N[C@@H](CCCNC(=N)N)C(=O)N[C@@H](CCCCN)C(=O)N[C@@H](Cc2c[nH]cn2)C(=O)N[C@@H](CCCNC(=N)N)C(=O)N[C@@H](Cc2c[nH]c3ccccc23)C(=O)N1)C(N)=O` [μ-TRTX-Hhn1b]: the “latency to fall off the rotarod” value in data set [1] (0.1 mg/kg, 30 min and 90 min after administration) was “no significant change in latencies to fall off the rotarod”; in data set [1] (0.2 mg/kg, 30 min after administration, p < 0.05) it was “significantly (p < 0.05) reduced latencies”; in data set [1] (0.2 mg/kg, 90 min after administration), “not at 90 min”. Further, the side effects entry in data set [2] (0.2 mg/kg) was “inactivity and paralysis”. Besides, the abnormal behaviors result in data set [2] (highest dose, some mice and rats) was “inactivity and paralysis, were observed in some mice and rats”. Moreover, the animal death result in data set [2] (in the three pain tests / all tests) is on record as “no animal death was observed; also recorded: no animal death occurred in all tests”.
